Test results from ChEMBL document CHEMBL1134429, “The development of a potential single photon emission computed tomography (SPECT) imaging agent for the corticotropin-releasing hormone receptor type” (Bioorg Med Chem Lett, 2001).

Biological target: T1, Corticotropin-releasing factor receptor 1 (Rattus norvegicus, UniProt P35353)
T1 sequence (P35353 whole entry): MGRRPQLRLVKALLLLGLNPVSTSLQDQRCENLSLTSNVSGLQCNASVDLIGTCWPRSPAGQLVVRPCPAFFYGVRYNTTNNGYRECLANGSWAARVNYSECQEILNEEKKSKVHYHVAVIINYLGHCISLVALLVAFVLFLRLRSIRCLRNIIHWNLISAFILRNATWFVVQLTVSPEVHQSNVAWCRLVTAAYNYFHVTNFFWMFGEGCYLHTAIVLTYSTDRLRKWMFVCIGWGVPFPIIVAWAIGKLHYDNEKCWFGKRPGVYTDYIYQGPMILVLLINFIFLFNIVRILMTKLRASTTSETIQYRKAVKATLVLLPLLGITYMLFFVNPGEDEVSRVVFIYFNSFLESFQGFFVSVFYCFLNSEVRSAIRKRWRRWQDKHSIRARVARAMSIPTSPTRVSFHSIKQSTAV
Assay: Binding affinity towards Corticotropin releasing hormone receptor type 1 of rat cerebellum using [125I]Tyr-sauvagine as radioligand.
Assay type: tissue-based

Row | Compound | Ki [nM]
1 | CCCN(CC1CC1)c1nc(C)nc(Nc2c(Cl)cc(I)cc2Cl)c1Cl | 14
2 | CCCN(CC1CC1)c1nc(C)nc(Nc2c(Cl)cc(Cl)cc2Cl)c1Cl | 31
